Results reported in patent US11999727B2 (Tango Therapeutics, Inc., priority 2020, dated 2024).

Legend:
PRMT5 [1] = molecular target: T1, PRMT5 (Homo sapiens, UniProt O14744); experiment: PRMT5 biochemical IC50 assay with SAM as cofactor; details: PRMT5, SAM as cofactor; read-out: SAM IC50
T1 construct: purchased Viva (custom protein)

PRMT5 [2] = molecular target: T1, PRMT5; experiment: PRMT5 biochemical IC50 assay with no cofactor; details: PRMT5, no cofactor
Source text: Table 1 indicates IC50 values (μM) against PRMT5 for exemplary compounds in the presence of SAM as cofactor, with no cofactor, and with MTA as cofactor, respectively (columns 4-6). […] Ki values can be calculated from the IC50 values as described in the Examples section. As detailed in the Examples section, for the assay performed in the presence of SAM, IC50=Ki×1.5 (Ki=IC50/1.5).

PRMT5 [3] = molecular target: T1, PRMT5; experiment: PRMT5 biochemical IC50 assay with MTA as cofactor; details: PRMT5, MTA as cofactor; read-out: MTA IC50
[4] = tested on: HAP1 MTAP-intact cell line; experiment: SDMA in-cell western assay, HAP1 MTAP-intact; assay type: cell-based; details: Homo sapiens, HAP1, SDMA in-cell western, HAP1 MTAP-intact; read-out: MTAP HAP1 intact IC50
Method in brief: (§1)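 Isogenic HAP1 pair: the MTAP-intact line expresses endogenous MTAP, and the deleted line is MTAP-null. Symmetric dimethylarginine was detected by in-cell western and IC50 values derived for each line.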

[5] = tested on: HAP1 MTAP-deleted cell line; experiment: SDMA in-cell western assay, HAP1 MTAP-deleted; assay type: cell-based; details: for IC50: Homo sapiens, HAP1, SDMA in-cell western, HAP1 MTAP-deleted; for MTAP intact/deleted ratio: SDMA in-cell western
Method in brief: as §1

[6] = tested on: HAP1 MTAP-deleted cell line; experiment: Viability assay, MTAP-deleted cell line; assay type: cell-based; details: Homo sapiens, read-out: HAP1 MTAP deleted viability
Source text: Table 1 additionally indicates IC50 values in a viability assay for the MTAP-deleted cell line (column 10), indicating the effect of treatment with compound on cell survival.

[7] = read-out: No Cofactor/ rel IC50
[8] = read-out: HAP 1 MTAP deleted IC50
[9] = IC50 ratio HAP1 MTAP-intact / HAP1 MTAP-deleted
[10] = HAP1, viability, HAP1 MTAP-deleted cell line

T1 sequence (O14744 whole entry): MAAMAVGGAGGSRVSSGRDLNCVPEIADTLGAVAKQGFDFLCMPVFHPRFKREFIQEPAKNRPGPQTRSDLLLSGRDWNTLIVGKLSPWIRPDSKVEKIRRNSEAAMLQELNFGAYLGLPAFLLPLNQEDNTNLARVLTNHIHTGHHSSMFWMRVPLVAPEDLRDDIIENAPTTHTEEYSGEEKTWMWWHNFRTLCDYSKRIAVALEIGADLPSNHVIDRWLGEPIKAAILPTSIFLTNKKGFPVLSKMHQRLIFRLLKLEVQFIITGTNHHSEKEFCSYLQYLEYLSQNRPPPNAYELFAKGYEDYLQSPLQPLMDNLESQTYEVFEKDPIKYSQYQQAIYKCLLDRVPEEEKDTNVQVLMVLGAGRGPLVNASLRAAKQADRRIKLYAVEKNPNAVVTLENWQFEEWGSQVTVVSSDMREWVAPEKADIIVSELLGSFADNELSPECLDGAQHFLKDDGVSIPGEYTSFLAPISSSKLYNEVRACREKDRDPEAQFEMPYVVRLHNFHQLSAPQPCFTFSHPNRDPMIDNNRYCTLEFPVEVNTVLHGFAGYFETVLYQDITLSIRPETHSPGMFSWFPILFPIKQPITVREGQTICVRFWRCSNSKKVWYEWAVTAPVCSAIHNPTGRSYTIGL
T1 sequence (Q9BQA1 whole entry partner): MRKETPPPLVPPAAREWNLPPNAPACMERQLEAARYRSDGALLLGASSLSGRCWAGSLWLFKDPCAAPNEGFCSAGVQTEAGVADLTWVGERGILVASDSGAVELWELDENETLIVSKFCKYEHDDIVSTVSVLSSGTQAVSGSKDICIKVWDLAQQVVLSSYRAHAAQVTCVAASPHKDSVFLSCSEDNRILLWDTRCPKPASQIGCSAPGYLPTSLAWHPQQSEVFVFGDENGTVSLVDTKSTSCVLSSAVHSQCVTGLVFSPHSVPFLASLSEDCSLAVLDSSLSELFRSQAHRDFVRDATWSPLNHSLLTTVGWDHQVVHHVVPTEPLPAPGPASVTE

| IC50 (PRMT5 [1]) [nM] | IC50 (PRMT5 [2]; read-out: No Cofactor/rel IC50) [nM] | IC50 (PRMT5 [3]) [nM] | IC50 [4] [nM] | IC50 ([5]; read-out: HAP1 MTAP deleted IC50) [nM] | IC50 (PRMT5 [2]; [7]) [nM] | IC50 [5, 8] [nM] | Compound | MTAP intact/deleted ratio ([5]; IC50 ratio HAP1 MTAP-intact vs HAP1 MTAP-deleted) | IC50 ([6]; HAP1, viability assay, MTAP-deleted cell line) [nM] | MTAP intact/deleted ratio [5, 9] | IC50 [6, 10] [nM] |
| --- | --- | --- | --- | --- | --- | --- | --- | --- | --- | --- | --- |
| < 50 | – | < 50 | < 100 | – | < 50 | < 100 | CCc1cc(NC(=O)C(=O)N2C[C@@H](C)CC[C@@H]2c2ccc3cn(C4CC(C)(C)N(C)C(C)(C)C4)nc3c2)cnc1N (racemic) [Compound 1295, N-(6-Amino-5-ethyl-3-pyridyl)-2-oxo-2-[rac-(2R,5S)-5-methyl-2-[2-(1,2,2,6,6-pentamethyl-4-piperidyl)indazol-6-yl]-1-piperidyl]acetamide] | – | – | A (an IC50 ratio greater than or equal to 10 fold) | < 1000 |
| < 50 | – | < 50 | < 100 | – | < 50 | < 100 | COc1ncc(NC(=O)C(=O)N2C[C@@H](C)CC[C@@H]2c2ccc3cn(C4CCN(C)CC4)nc3c2)cc1C(N)=O (racemic) [Compound 1299, 2-Methoxy-5-[[2-oxo-2-[rac-(2R,5S)-5-methyl-2-[2-(1-methyl-4-piperidyl)indazol-6-yl]-1-piperidyl]acetyl]amino]pyridine-3-carboxamide] | – | – | B (an IC50 ratio greater than or equal to 3 fold but lower than 10 fold) | < 1000 |
| 50 to 500 | – | < 50 | < 100 | – | < 50 | < 100 | CCc1cc(NC(=O)C(=O)N2C[C@@H](C)CC[C@@H]2c2ccc(OCCN(C)C)c(Cl)c2)cnc1N (racemic) [Compound 1305, N-(6-Amino-5-ethyl-3-pyridyl)-2-oxo-2-[rac-(2R,5S)-2-[3-chloro-4-[2-(dimethylamino)ethoxy]phenyl]-5-methyl-1-piperidyl]acetamide] | – | – | A (an IC50 ratio greater than or equal to 10 fold) | < 1000 |
| 50 to 500 | – | < 50 | 100 to 1000 | – | < 50 | < 100 | COc1ncc(NC(=O)C(=O)N2C[C@@H](C)CC[C@@H]2c2ccc3nn([C@H]4CCN(C)C4)cc3c2)cc1C(N)=O (racemic) [Compound 1318, 2-Methoxy-5-[[2-oxo-2-[rac-(2R,5S)-5-methyl-2-[2-[rac-(3S)-1-methylpyrrolidin-3-yl]indazol-5-yl]-1-piperidyl]acetyl]amino]pyridine-3-carboxamide] | – | – | A (an IC50 ratio greater than or equal to 10 fold) | < 1000 |
| 50 to 500 | – | 50 to 500 | > 1000 | – | 50 to 500 | < 100 | CCc1cc(NC(=O)C(=O)N2C[C@@H](C)CC[C@@H]2c2ccc(N3CCOC4(CN(C)C4)C3)cc2)cnc1N (racemic) [Compound 1329, rac-N-(6-Amino-5-ethyl-3-pyridyl)-2-[(2R,5S)-5-methyl-2-[4-(2-methyl-5-oxa-2,8-diazaspiro[3.5]nonan-8-yl)phenyl]-1-piperidyl]-2-oxo-acetamide] | – | – | – | < 1000 |

The next lines start with the compound.

| Compound | IC50 (PRMT5 [1]) [nM] | IC50 (PRMT5 [2]; read-out: No Cofactor/rel IC50) [nM] | IC50 (PRMT5 [3]) [nM] | IC50 [4] [nM] | IC50 ([5]; read-out: HAP1 MTAP deleted IC50) [nM] | IC50 (PRMT5 [2]; [7]) [nM] | IC50 [5, 8] [nM] | MTAP intact/deleted ratio ([5]; IC50 ratio HAP1 MTAP-intact vs HAP1 MTAP-deleted) | IC50 ([6]; HAP1, viability assay, MTAP-deleted cell line) [nM] | MTAP intact/deleted ratio [5, 9] | IC50 [6, 10] [nM] |
| --- | --- | --- | --- | --- | --- | --- | --- | --- | --- | --- | --- |
| Cc1cc(NC(=O)C(=O)N2C[C@H](C)CC[C@H]2c2ccc(CCN(C)C)cc2)cnc1N (racemic) [Compound 1233, N-(6-amino-5-methyl-3-pyridyl)-2-[2-[4-[2-(dimethylamino)ethyl]phenyl]-5-methyl-1-piperidyl]-2-oxo-acetamide] | 50 to 500 | 50 to 500 | < 50 | 100 to 1000 | < 100 | – | – | B (an IC50 ratio greater than or equal to 3 fold but lower than 10 fold) | < 1000 | – | – |
| CCc1cc(NC(=O)C(=O)N2C[C@@H](C)CC[C@@H]2c2ccc3nn(C4CN(C)C4)cc3c2)cnc1N (racemic) [Compound 1239, N-(6-Amino-5-ethyl-3-pyridyl)-2-oxo-2-[rac-(2R,5S)-5-methyl-2-[2-(1-methylazetidin-3-yl)indazol-5-yl]-1-piperidyl]acetamide] | 50 to 500 | – | < 50 | 100 to 1000 | – | < 50 | < 100 | – | – | A (an IC50 ratio greater than or equal to 10 fold) | < 1000 |
| COc1ncc(NC(=O)C(=O)N2C[C@@H](C)CC[C@@H]2c2ccc3sc([C@H]4CCN(C)C4)nc3c2)cc1C(N)=O (racemic) [Compound 1260, 2-methoxy-5-[[2-oxo-2-[rac-(2R,5S)-5-methyl-2-[2-[rac-(3S)-1-methylpyrrolidin-3-yl]-1,3-benzothiazol-5-yl]-1-piperidyl]acetyl]amino]pyridine-3-carboxamide] | < 50 | – | < 50 | < 100 | – | < 50 | < 100 | – | – | A (an IC50 ratio greater than or equal to 10 fold) | < 1000 |
| CCc1cc(NC(=O)C(=O)N2C[C@@H](C)CC[C@@H]2c2ccc3c(c2)C(=O)N(C2CCN(C)CC2)C3)cnc1N (racemic) [Compound 1272, N-(6-amino-5-ethyl-3-pyridyl)-2-oxo-2-[rac-(2R,5S)-5-methyl-2-[2-(1-methyl-4-piperidyl)-3-oxo-isoindolin-5-yl]-1-piperidyl]acetamide] | 50 to 500 | – | < 50 | 100 to 1000 | – | < 50 | < 100 | – | – | A (an IC50 ratio greater than or equal to 10 fold) | < 1000 |
| COc1ncc(NC(=O)C(=O)N2C[C@@H](C)CC[C@@H]2c2ccc3sc([C@@H]4CCN(C)C4)nc3c2)cc1C(N)=O (racemic) [Compound 1278, 2-methoxy-5-[[2-oxo-2-[rac-(2R,5S)-5-methyl-2-[2-[rac-(3R)-1-methylpyrrolidin-3-yl]-1,3-benzothiazol-5-yl]-1-piperidyl]acetyl]amino]pyridine-3-carboxamide] | < 50 | – | < 50 | < 100 | – | < 50 | < 100 | – | – | A (an IC50 ratio greater than or equal to 10 fold) | < 1000 |
| COc1ncc(NC(=O)C(=O)N2C[C@@H](C)CC[C@@H]2c2ccc3sc(CCN(C)C)nc3c2)cc1C(N)=O (racemic) [Compound 1281, 5-[[2-[(2R,5S)-2-[2-[2-(dimethylamino)ethyl]-1,3-benzothiazol-5-yl]-5-methyl-1-piperidyl]-2-oxo-acetyl]amino]-2-methoxy-pyridine-3-carboxamide] | 50 to 500 | – | < 50 | 100 to 1000 | – | 50 to 500 | < 100 | – | – | A (an IC50 ratio greater than or equal to 10 fold) | < 1000 |
| CCc1cc(NC(=O)C(=O)N2C[C@@H](C)CC[C@@H]2c2ccc(N3C[C@H]4CN(C)CC[C@H]4C3)cc2)cnc1N (racemic) [Compound 1287, N-(6-amino-5-ethyl-3-pyridyl)-2-oxo-2-[rac-(2R,5S)-5-methyl-2-[4-[rac-(3aR,7aR)-5-methyl-3,3a,4,6,7,7a-hexahydro-1H-pyrrolo[3,4-c]pyridin-2-yl]phenyl]-1-piperidyl]acetamide] | 50 to 500 | – | < 50 | 100 to 1000 | – | < 50 | < 100 | – | – | A (an IC50 ratio greater than or equal to 10 fold) | < 1000 |
